# Data from article PMC5572369 (Frontiers in Microbiology, 2017).
# Key:
# PrbP [1] = target: T1, PrbP (Candidatus Liberibacter asiaticus, UniProt A0ABM5NE52)
# T1 construct: gene WSI_01420
# PrbP [2] = target: T1, PrbP; remark: listed apart in the source
compound,measurement,setting,value
Cc1c(Cl)cccc1Nc1ccccc1C(=O)O [tolfenamic acid],concentration for complete disruption of PrbP/PrplK complex,PrbP [1],350 µM
same,% decrease in transcription at 500 μM,PrbP [2],79%
